From patent US12660819B2, “Herbicidal derivatives” (SYNGENTA CROP PROTECTION AG, priority 2020, dated 2026)

How the values were obtained:
Type in all cases: in vivo
Setaria faberi (SETFA) [1] = test: Pre-emergence Test (glasshouse, percentage damage to the plant); details: 1000 g/ha unless otherwise stated; for percentage damage to the plant, SETFA: five-point scale
[2] = test system: Echinochloa crus-galli (ECHCG); test: as above; details: 1000 g/ha unless otherwise stated; for percentage damage to the plant, ECHCG: five-point scale
[3] = test system: Amaranthus retoflexus (AMARE); test: as above; details: 1000 g/ha unless otherwise stated; for percentage damage to the plant, AMARE: five-point scale
[4] = test system: Abutilon theophrasti (ABUTH); test: as above; details: 1000 g/ha unless otherwise stated; for percentage damage to the plant, ABUTH: five-point scale
Zea mays (ZEAMX) [5] = test: as above; details: 1000 g/ha unless otherwise stated; for percentage damage to the plant, ZEAMX: five-point scale
[6] = test system: Ipomoea hederacea (IPOHE); test: as above; details: 1000 g/ha unless otherwise stated; for percentage damage to the plant, IPOHE: five-point scale
[7] = test system: Amaranthus retoflexus (AMARE); test: Post-emergence Test (glasshouse, percentage damage to the plant); details: 1000 g/ha unless otherwise stated, evaluated after 13 days; for Post-emergence Test AMARE, percentage damage to the plant (five-point scale): post-emergence spray
Experimental: (§1) Seeds of a variety of test species are sown in standard soil in pots (Amaranthus retoflexus (AMARE), Solanum nigrum (SOLNI), Setaria faberi (SETFA), Lolium perenne (LOLPE), Echinochloa crus-galli (ECHCG), Ipomoea hederacea (IPOHE), Abutilon theophrasti (ABUTH), Zea mays (ZEAMX), Amaranthus palmeri (AMAPA). After 8 days cultivation under controlled conditions in a glasshouse (at 24° C./16° C., day/night; 14 hours light; 65% humidity), the plants are sprayed with an aqueous spray solution derived from the formulation of the technical active ingredient in acetone/water (50:50) solution containing 0.5% Tween 20 (polyoxyethelyene sorbitan monolaurate, CAS RN 9005-64-5). Compounds are applied at 1000 g/ha unless otherwise stated. The test plants are then grown in a glasshouse under controlled conditions in a glasshouse (at 24° C./16° C., day/night; 14 hours light; 65% humidity) and watered twice daily. After 13 days the test is evaluated for the percentage damage caused to the plant. The biological activities are shown in the following table on a five-point scale (5=81-100%; 4=61-80%; 3=41-60%; 2=21-40%; 1=0-20%).

Setaria faberi (SETFA) [8] = test: as above; details: 1000 g/ha unless otherwise stated, evaluated after 13 days; for Post-emergence Test SETFA, percentage damage to the plant (five-point scale): post-emergence spray
Experimental: as §1

[9] = test system: Ipomoea hederacea (IPOHE); test: as above; details: 1000 g/ha unless otherwise stated, evaluated after 13 days; for Post-emergence Test IPOHE, percentage damage to the plant (five-point scale): post-emergence spray
Experimental: as §1

Zea mays (ZEAMX) [10] = test: as above; details: 1000 g/ha unless otherwise stated, evaluated after 13 days; for Post-emergence Test ZEAMX, percentage damage to the plant (five-point scale): post-emergence spray
Experimental: as §1

Compound	percentage damage to the plant, SETFA (Setaria faberi (SETFA) [1])	percentage damage to the plant, ECHCG [2]	percentage damage to the plant, AMARE [3]	percentage damage to the plant, ABUTH [4]	percentage damage to the plant, ZEAMX (Zea mays (ZEAMX) [5])	percentage damage to the plant, IPOHE [6]	Post-emergence Test AMARE, percentage damage to the plant (five-point scale) [7]	Post-emergence Test SETFA, percentage damage to the plant (five-point scale) (Setaria faberi (SETFA) [8])	Post-emergence Test IPOHE, percentage damage to the plant (five-point scale) [9]	Post-emergence Test ZEAMX, percentage damage to the plant (five-point scale) (Zea mays (ZEAMX) [10])	percentage damage to the plant, SETFA (five-point scale) (Setaria faberi (SETFA) [1]; Setaria faberi)	percentage damage to the plant, ECHCG (five-point scale) ([2]; Echinochloa crus-galli)	percentage damage to the plant, AMARE (five-point scale) ([3]; Amaranthus retoflexus)	percentage damage to the plant, ABUTH (five-point scale) ([4]; Abutilon theophrasti)	percentage damage to the plant, ZEAMX (five-point scale) (Zea mays (ZEAMX) [5]; Zea mays)	percentage damage to the plant, IPOHE (five-point scale) ([6]; Ipomoea hederacea)	AMARE, percentage damage caused to the plant (five-point scale) ([7]; post-emergence)	SETFA, percentage damage caused to the plant (five-point scale) (Setaria faberi (SETFA) [8]; post-emergence)	IPOHE, percentage damage caused to the plant (five-point scale) ([9]; post-emergence)	ZEAMX, percentage damage caused to the plant (five-point scale) (Zea mays (ZEAMX) [10]; post-emergence)
CCn1c(C)c(-c2ccc(Cl)c(C#N)c2)c(=O)c(C(=O)O)c1-c1ccc(Cl)cc1 [Compound 196, 5-(4-chloro-3-cyano-phenyl)-2-(4-chlorophenyl)-1-ethyl-6-methyl-4-oxo-pyridine-3-carboxylic acid]	1 (1=0-20%)	2 (2=21-40%)	1 (1=0-20%)	0	0	1 (1=0-20%)	3 (3=41-60%)	3 (3=41-60%)	3 (3=41-60%)	2 (2=21-40%)										
CCn1c(C)c(-c2cc(Cl)cc(Cl)c2)c(=O)c(C(=O)O)c1-c1ccc(Cl)cc1 [Compound 188, 2-(4-chlorophenyl)-5-(3,5-dichlorophenyl)-1-ethyl-6-methyl-4-oxo-pyridine-3-carboxylic acid]	0	0	0	0	0	0	0	0	1 (1=0-20%)	1 (1=0-20%)										
CCn1c(C)c(-c2cccc(Cl)c2Cl)c(=O)c(C(=O)O)c1-c1ccc(Cl)cc1 [Compound 172, 2-(4-chlorophenyl)-5-(2,3-dichlorophenyl)-1-ethyl-6-methyl-4-oxo-pyridine-3-carboxylic acid]	3 (3=41-60%)	3 (3=41-60%)	1 (1=0-20%)	1 (1=0-20%)	0	1 (1=0-20%)	2 (2=21-40%)	4 (4=61-80%)	4 (4=61-80%)	2 (2=21-40%)										
CCn1c(C)c(-c2cc(C(F)(F)F)ccc2F)c(=O)c(C(=O)O)c1-c1ccc(Cl)cc1 [Compound 177, 2-(4-chlorophenyl)-1-ethyl-5-[2-fluoro-5-(trifluoromethyl)phenyl]-6-methyl-4-oxo-pyridine-3-carboxylic acid]	2 (2=21-40%)	1 (1=0-20%)	1 (1=0-20%)	3 (3=41-60%)	0	3 (3=41-60%)	4 (4=61-80%)	4 (4=61-80%)	3 (3=41-60%)	3 (3=41-60%)										
CCn1c(C)c(-c2ccc(C(F)(F)F)c(Cl)c2)c(=O)c(C(=O)O)c1-c1ccc(Cl)cc1 [Compound 170, 2-(4-chlorophenyl)-5-[3-chloro-4-(trifluoromethyl)phenyl]-1-ethyl-6-methyl-4-oxo-pyridine-3-carboxylic acid]	0	0	1 (1=0-20%)	0	0	0	5 (5=81-100%)	1 (1=0-20%)	3 (3=41-60%)	2 (2=21-40%)										
CCn1c(C)c(-c2cc(F)c(F)c(F)c2)c(=O)c(C(=O)O)c1-c1ccc(Cl)cc1 [Compound 200, 2-(4-chlorophenyl)-1-ethyl-6-methyl-4-oxo-5-(3,4,5-trifluorophenyl)pyridine-3-carboxylic acid]											2 (2=21-40%)	3 (3=41-60%)	0	3 (3=41-60%)	0	2 (2=21-40%)	1 (1=0-20%)	3 (3=41-60%)	3 (3=41-60%)	2 (2=21-40%)
CCn1c(C)c(-c2cc(F)cc(C#N)c2)c(=O)c(C(=O)O)c1-c1ccc(Cl)cc1 [Compound 190, 2-(4-chlorophenyl)-5-(3-cyano-5-fluoro-phenyl)-1-ethyl-6-methyl-4-oxo-pyridine-3-carboxylic acid]	2 (2=21-40%)	2 (2=21-40%)	1 (1=0-20%)	0	2 (2=21-40%)	1 (1=0-20%)	1 (1=0-20%)	2 (2=21-40%)	1 (1=0-20%)	1 (1=0-20%)										
CCn1c(C)c(-c2ccc(Cl)cc2OC)c(=O)c(C(=O)O)c1-c1ccc(Cl)cc1 [Compound 184, 5-(4-chloro-2-methoxy-phenyl)-2-(4-chlorophenyl)-1-ethyl-6-methyl-4-oxo-pyridine-3-carboxylic acid]	1 (1=0-20%)	1 (1=0-20%)	1 (1=0-20%)	1 (1=0-20%)	0	0	4 (4=61-80%)	5 (5=81-100%)	3 (3=41-60%)	3 (3=41-60%)										
CCn1c(C)c(-c2ccc(F)cc2OC)c(=O)c(C(=O)O)c1-c1ccc(Cl)cc1 [Compound 186, 2-(4-chlorophenyl)-1-ethyl-5-(4-fluoro-2-methoxy-phenyl)-6-methyl-4-oxo-pyridine-3-carboxylic acid]	2 (2=21-40%)	1 (1=0-20%)	1 (1=0-20%)	3 (3=41-60%)	0	1 (1=0-20%)	1 (1=0-20%)	3 (3=41-60%)	2 (2=21-40%)	2 (2=21-40%)										
CCn1c(C)c(-c2ccc(C#N)c(C(F)(F)F)c2)c(=O)c(C(=O)O)c1-c1ccc(Cl)cc1 [Compound 187, 2-(4-chlorophenyl)-5-[4-cyano-3-(trifluoromethyl)phenyl]-1-ethyl-6-methyl-4-oxo-pyridine-3-carboxylic acid]	2 (2=21-40%)	1 (1=0-20%)	1 (1=0-20%)	3 (3=41-60%)	1 (1=0-20%)	2 (2=21-40%)	3 (3=41-60%)	2 (2=21-40%)	3 (3=41-60%)	2 (2=21-40%)										
